Reference: ChEMBL document CHEMBL5104172, “Design, synthesis, and antibacterial activity of derivatives of Tryptophanyl-tRNA synthetase inhibitor indolmycin” (Eur J Med Chem, 2022)
In brackets after ≈: the same amount, converted by molar mass.

Legend:
Assay type in all cases: functional
[1] = tested on: Escherichia coli; assay: Antibacterial activity against Escherichia coli ATCC 25922 measured by liquid dilution method
[2] = tested on: Staphylococcus aureus; assay: Antibacterial activity against Staphylococcus aureus ATCC 29213 measured by liquid dilution method
[3] = tested on: Staphylococcus aureus; assay: Antibacterial activity against methicillin-resistant Staphylococcus aureus NRS384 measured by liquid dilution method
[4] = tested on: Enterococcus faecalis; assay: Antibacterial activity against Enterococcus faecalis EFA17-1 measured by liquid dilution method
[5] = tested on: Staphylococcus aureus; assay: Antibacterial activity against vancomycin-intermediate Staphylococcus aureus ATCC 700699 measured by liquid dilution method

| SMILES | MIC [1] [mg/L] | MIC [2] [mg/L] | MIC [3] [mg/L] | MIC [4] [mg/L] | MIC [5] [mg/L] |
| --- | --- | --- | --- | --- | --- |
| CNC1=NC(=O)C(C(C)c2c[nH]c3cc(C)ccc23)O1 (racemic) | 16 (≈ 59 µM) | > 128 | 8 (≈ 29.5 µM) | – | – |
| CC(c1c[nH]c2ccccc12)C1OC(N)=NC1=O (racemic) | > 128 | 8 (≈ 32.9 µM) | > 128 | – | – |
| CNC1=NC(=O)C(C(C)c2c[nH]c3cccc(Br)c23)S1 (racemic) | > 128 | 16 (≈ 45.4 µM) | > 128 | – | – |
| CNC1=NC(=O)C(C(C)c2c[nH]c3ccc(N4CCCCC4)cc23)O1 (racemic) | > 128 | > 128 | > 128 | – | – |
| CNC1=NC(=O)C(C(C)c2c[nH]c3c(C)cccc23)O1 (racemic) | > 128 | > 128 | > 128 | – | – |
| CNC1=NC(=O)C(C(C)c2c[nH]c3cccc(Br)c23)O1 (racemic) | > 128 | 4 (≈ 11.9 µM) | > 128 | – | – |
| CNC1=NC(=O)C(C(C)c2c[nH]c3cccc(O)c23)O1 (racemic) | > 128 | > 128 | 8 (≈ 29.3 µM) | – | – |
| CNC1=NC(=O)C(C(C)c2c[nH]c3cccc(OCc4ccccc4)c23)O1 (racemic) | > 128 | > 128 | > 128 | – | – |
| CNC1=NC(=O)C(C(C)c2c[nH]c3ccc(F)cc23)O1 (racemic) | 128 (≈ 465 µM) | 32 (≈ 116 µM) | 64 (≈ 232 µM) | – | – |
| CNC1=NC(=O)C(C(C)c2c[nH]c3cccc(OC)c23)O1 (racemic) | 16 (≈ 55.7 µM) | 128 (≈ 445 µM) | > 128 | – | – |
| CNC1=NC(=O)C(C(C)c2c[nH]c3cccc(C)c23)S1 (racemic) | > 128 | 4 (≈ 13.9 µM) | > 128 | – | – |
| CC(c1c[nH]c2ccccc12)C1SC(N)=NC1=O (racemic) | > 128 | 8 (≈ 30.8 µM) | > 128 | – | – |
| CNC1=NC(=O)C(C(C)c2c[nH]c3cccc(F)c23)O1 (racemic) | 4 (≈ 14.5 µM) | 1 (≈ 3.63 µM) | 1 (≈ 3.63 µM) | – | – |
| CNC1=NC(=O)C(C(C)c2c[nH]c3cccc(N4CCCCC4)c23)O1 (racemic) | > 128 | 64 (≈ 188 µM) | > 128 | – | – |
| CCN(CC)c1cccc2[nH]cc(C(C)C3OC(NC)=NC3=O)c12 (racemic) | > 128 | 64 (≈ 195 µM) | > 128 | – | – |
| CNC1=NC(=O)C(C(C)c2c[nH]c3cc(F)ccc23)O1 (racemic) | 8 (≈ 29.1 µM) | 16 (≈ 58.1 µM) | 8 (≈ 29.1 µM) | – | – |
| CNC1=NC(=O)C(C(C)c2c[nH]c3cccc(C)c23)O1 (racemic) | 32 (≈ 118 µM) | 2 (≈ 7.37 µM) | > 128 | – | – |
| CN[C@H](CC(C)C)C(=O)N[C@H]1C(=O)N[C@@H](CC(N)=O)C(=O)N[C@H]2C(=O)N[C@H]3C(=O)N[C@H](C(=O)N[C@H](C(=O)O)c4cc(O)cc(O)c4-c4cc3ccc4O)[C@H](O)c3ccc(c(Cl)c3)Oc3cc2cc(c3O[C@@H]2O[C@H](CO)[C@@H](O)[C@H](O)[C@H]2O[C@H]2C[C@](C)(N)[C@H](O)[C@H](C)O2)Oc2ccc(cc2Cl)[C@H]1O [VANCOMYCIN] | – | – | – | 2 (≈ 1.38 µM) | 8 (≈ 5.52 µM) |
